Reference: patent publication US20200131144A1, “AMINE OR (THIO)AMIDE CONTAINING LXR MODULATORS” (Phenex-FXR GmbH, priority 2017, published 2020)
pEC50: −log10 of the molar value. Like-named read-outs stand apart in the source and are kept apart here.

Columns and labels:
[1] = biological target: T1, GST-LXRβ ligand-binding domain (Homo sapiens, UniProt P55055, INS174Q); experiment: TR-FRETβ activity assay (NCoA3 coactivator peptide recruitment); assay type: biochemical; details: 1 μM 24(S)-25-epoxycholesterol as prestimulating agonist; inverse agonist unless *
T1 construct: amino acids 156-461; NP009052; made in house; host or cells: E. coli
T1 sequence (P55055 with tags, fused parts or gaps INS174Q limits assumed): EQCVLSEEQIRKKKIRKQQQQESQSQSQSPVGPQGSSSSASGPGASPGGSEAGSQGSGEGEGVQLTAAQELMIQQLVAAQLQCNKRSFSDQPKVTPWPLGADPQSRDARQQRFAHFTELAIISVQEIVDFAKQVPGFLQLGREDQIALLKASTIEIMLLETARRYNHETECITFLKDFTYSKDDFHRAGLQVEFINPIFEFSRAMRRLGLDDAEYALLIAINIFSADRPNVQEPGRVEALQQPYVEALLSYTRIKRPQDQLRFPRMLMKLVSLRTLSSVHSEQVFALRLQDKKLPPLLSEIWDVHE
Method in brief: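 E. coli-expressed GST-LXRβ LBD (aa 156-461, 76 nM) with biotinylated NCoA3 peptide (400 nM), anti-GST-Tb cryptate donor and streptavidin-XL665 acceptor in 240 mM KCl, BSA, 0.002% Triton X-100. Equilibrated 1 h at 4° C; TR-FRET read at 615/665 nm, triplicates.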

[2] = biological target: T2, LXRα ligand-binding domain (LBD) (Homo sapiens, UniProt Q13133); experiment: LXR Gal4 reporter transient transfection assay, mammalian two-hybrid, LBD-M2H Gal4α; assay type: cell-based; details: HEK293 cells; inverse agonist unless *
T2 construct: expressed in transfected cells; host or cells: HEK293
T2 sequence (Q13133 155-447): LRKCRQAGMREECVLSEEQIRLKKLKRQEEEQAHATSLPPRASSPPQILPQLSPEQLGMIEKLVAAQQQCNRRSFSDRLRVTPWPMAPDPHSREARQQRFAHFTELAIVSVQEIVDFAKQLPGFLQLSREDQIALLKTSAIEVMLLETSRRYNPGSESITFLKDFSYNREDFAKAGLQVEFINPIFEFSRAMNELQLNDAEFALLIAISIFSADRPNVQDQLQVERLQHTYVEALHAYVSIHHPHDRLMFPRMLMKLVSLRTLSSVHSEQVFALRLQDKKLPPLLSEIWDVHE
Protocol: (§1) The tested compounds were usually dissolved, tested and stored as 20 mM stock solutions in DMSO. Since sulfonyl acetic acid derivatives tend to decarboxylate under these conditions, these stock solutions were prepared, tested and stored as 20 mM DMSO stock solutions containing 100 mM trifluoroacetic acid (5 equivalents). Sulfonyl acetic acid derivatives are shelf stable as solid at rt for long time as reported by Griesbrecht et al. (Synlett 2010:374) or Faucher et al. (J. Med. Chem. 2004; 47:18).
(§2) LXR Gal4 Reporter Transient Transfection Assays
(§3) LXRα and LXRβ activity status was determined via detection of interaction with coactivator and corepressor proteins in mammalian two-hybrid experiments (M2H). For this, via transient transfection the full length (FL) proteins of LXRα (amino acids 1-447; NP005684; SEQ ID NO:1) or LXRβ-(amino acids 1-461; NP009052; SEQ ID NO:2) or the ligand-binding domains (LBD) of LXRα (amino acids 155-447 SEQ ID NO:3) or LXR (amino acids 156-461; SEQ ID NO:4) were expressed from pCMV-AD (Stratagene) as fusions to the transcriptional activation domain of NFkB. As cofactors, domains of either the steroid receptor coactivator 1 (SRC1; amino acids 552-887; SEQ ID NO:5) or of the corepressor NCoR (amino acids 1906-2312; NP006302; SEQ ID NO:6) were expressed as fusions to the DNA binding domain of the yeast transcription factor GAL4 (from pCMV-BD; Stratagene). Interaction was monitored via activation of a coexpressed Firefly Luciferase Reporter gene under control of a promoter containing repetitive GAL4 response elements (vector pFRLuc; Stratagene). Transfection efficiency was controlled via cotransfection of constitutively active pRL-CMV Renilla reniformis luciferase reporter (Promega). HEK293 cells were grown in minimum essential medium (MEM) with 2 mM L-glutamine and Earle's balanced salt solution supplemented with 8.3% fetal bovine serum, 0.1 mM non-essential amino acids, 1 mM sodium pyruvate, at 37° C. in 5% CO2. 3.5×10^4 cells/well were plated in 96-well cell culture plates in growth medium supplemented with 8.3% fetal bovine serum for 16-20 h to—90% confluency. For transfection, medium was taken off and LXR and cofactor expressing plasmids as well as the reporter plasmids are added in 30 μL OPTIMEM/well including polyethylene-imine (PEI) as vehicle. Typical amounts of plasmids transfected/well: pCMV-AD-LXR (5 ng), pCMV-BD-cofactor (5 ng), pFR-Luc (100 ng), pRL-CMV (0.5 ng). Compound stocks were prepared in DMSO, prediluted in MEM to a total volume of 120 μL, and added 4 h after addition of the transfection mixture (final vehicle concentration not exceeding 0.2%). Cells were incubated for additional 16 h, lysed for 10 min in 1×Passive Lysis Buffer (Promega) and Firefly and Renilla luciferase activities were measured sequentially in the same cell extract using buffers containing D-luciferine and coelenterazine, respectively. Measurements of luminescence were done in a BMG-luminometer.

[3] = biological target: T3, LXRβ ligand-binding domain (LBD) (Homo sapiens, UniProt P55055, INS174Q); experiment: LXR Gal4 reporter transient transfection assay, mammalian two-hybrid, LBD-M2H Gal4β; assay type: cell-based; details: HEK293 cells; inverse agonist unless *
T3 construct: or LXR (amino acids 156-461); expressed in transfected cells; host or cells: HEK293
T3 sequence (P55055 with tags, fused parts or gaps INS174Q limits assumed): T1 sequence (P55055 with tags, fused parts or gaps INS174Q limits assumed)
Protocol: as §1, §2, §3

[4] = Pharmacokinetics in mice after single oral dosing, blood and liver exposure by LC-MS; assay type: in vivo, mice (C57/bl6/J)
Method in brief: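 Male C57BL/6J mice fasted ≥12 h, given a single oral dose of 20 mg/kg (n=3 per group). Sacrifice at 4, 12 or 24 h post-dose; liver and blood levels quantified by LC-MS.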

[5] = Chemical stability of stock solutions and solids; assay type: physicochemical; details: sodium salt
Protocol: To a solution of compound 7/9 (150 mg, 0.24 mmol) in MeOH (10 mL) and water (10 mL) was added NaOH ([…], 0.48 mmol) at rt. The mixture was stirred at rt overnight and concentrated. The residue was washed with H2O to give compound 14 as a white solid.
as §1

[6] = rat liver microsome; cited from earlier work
[7] = human liver microsome; cited from earlier work
[8] = system: T4, LXR; experiment: Activity on LXR, assay not specified; details: confirmed by applicant
T4 construct: rows headed: activity on LXR; other: confirmed by applicant; LXRα (amino acids 1-447); NP005684; NP009052
Source text: The following compounds from this application, in particular, are further described in some publications, mainly from the same group of inventors/authors: SR9238 is described as a liver-selective LXR inverse agonist that suppresses hepatic steatosis upon parenteral administration (Griffett et al., ACS Chem. Biol. 2013; 8:559). […] This compound then has systemic exposure. In addition, it was described, that SR9238 suppresses fibrosis in a model of NASH again after parenteral administration (Griffett et al., Mol. Metab. 2015; 4:35). With a related SR9243 the effects on aerobic glycolysis (Warburg effect) and lipogenesis were described (Flaveny et al., Cancer Cell 2015; 28:42) and the NASH-supressing data obtained with SR9238 was confirmed by Huang et al. (BioMed Res. Int. 2018; 8071093) using SR9243.

[9] = system: LXR; details: literature; cited from earlier work
[10] = single oral dose 20 mg/kg, time point 4 h
[11] = single oral dose 20 mg/kg, time point 12 h
[12] = single oral dose 20 mg/kg, time point 4 h, below LLOQ

Cc1cc(C)c(CN(Cc2ccc(-c3cccc(S(=O)(=O)CC(=O)O)c3)cc2)Cc2ccc(C(F)(F)F)o2)c(C)c1 [Example 1, 2-((4′-((((5-(Trifluoromethyl)furan-2-yl)methyl)(2,4,6-trimethylbenzyl)amino)methyl)-1,1′-biphenyl-3-yl)sulfonyl)acetic acid]
pEC50 [1]: 5.00 to 6.00
pEC50 [2]: 5.00 to 6.00
pEC50 [3]: 6.00 to 7.00
Kp at 4 h ([4]; male, C57/bl6/J, mouse, liver/blood, single oral dose 20 mg/kg, time point 4 h, read-out: liver/blood ratio): 51
Kp at 12 h ([4]; male, C57/bl6/J, mouse, liver/blood, single oral dose 20 mg/kg, time point 12 h, read-out: liver/blood ratio): 54
blood/plasma exposure [4, 10]: 0.83 µM
liver exposure [4, 10]: 42 µM
blood/plasma exposure [4, 11]: 0.06 µM
liver exposure [4, 11]: 3.2 µM

Cc1cc(C)c(C(=O)N(Cc2ccc(-c3cccc(S(=O)(=O)CC(=O)O)c3)cc2)Cc2ccc(C(F)(F)F)o2)c(C)c1 [Example 4, 2-((4′-((2,4,6-Trimethyl-N-((5-(trifluoromethyl)furan-2-yl)methyl)benzamido)methyl)-1,1′-biphenyl-3-yl)sulfonyl)acetic acid]
pEC50 [1]: 5.00 to 6.00
pEC50 [2]: 6.00 to 7.00
pEC50 [3]: 6.00 to 7.00
liver exposure [4, 11]: 3.45 µM

COc1cc(-c2ccc(CO)c(C(C)(C)C(=O)[O-])c2)ccc1CN(Cc1ccc(C(F)(F)F)o1)Cc1c(C)ccc2ccccc12.[Na+] [Example 14]
pEC50 [1]: 5.00 to 6.00
pEC50 [2]: 5.00 to 6.00
pEC50 [3]: > 7.00
stability upon standing [5]: tends to cyclisize back to lacton 7/9 upon standing

Cc1cc(C)c(S(=O)(=O)N(Cc2ccc(-c3cccc(S(C)(=O)=O)c3)cc2)Cc2ccc(C(F)(F)F)o2)c(C)c1 [GSK2033, reference compound]
oral bioavailability ([4]; single dose oral administration, 20 mg/kg): not orally bioavailable and hepatoselective
blood/plasma exposure [4, 12]: (14.4 ng/mL)
liver exposure [4, 12]: (9.6 ng/mL)
clearance ClInt [6]: > 1.0 mL/min/mg prot
clearance ClInt [7]: > 1.0 mL/min/mg prot

Cc1cc(C)c(S(=O)(=O)N(Cc2ccc(-c3cccc(S(C)(=O)=O)c3)cc2)Cc2ccc(C(=O)O)o2)c(C)c1 [SR10389]
activity on LXR [8]: inactive on LXR
LXR activity [9]: LXR inactive
